From publication PMC4192806 (Endocrinology and Metabolism, 2014)
No end group written: not given here.

Key:
human GLP1R = human GLP1R (Homo sapiens, UniProt P43220); test: CRE-luc luciferase assay in GLP1R and CRE-luc cotransfected HEK293T cells; format: cell-based
[1] = target: DPP-IV activity of fetal bovine serum (Bos taurus, UniProt P81425); test: Stability in 100% FBS, residual activity by GLP1R/CRE-luc luciferase assay; format: in vitro ADME; conditions: FBS incubation, 37℃
DPP-IV activity of fetal bovine serum, sequence (P81425 38-765 limits assumed): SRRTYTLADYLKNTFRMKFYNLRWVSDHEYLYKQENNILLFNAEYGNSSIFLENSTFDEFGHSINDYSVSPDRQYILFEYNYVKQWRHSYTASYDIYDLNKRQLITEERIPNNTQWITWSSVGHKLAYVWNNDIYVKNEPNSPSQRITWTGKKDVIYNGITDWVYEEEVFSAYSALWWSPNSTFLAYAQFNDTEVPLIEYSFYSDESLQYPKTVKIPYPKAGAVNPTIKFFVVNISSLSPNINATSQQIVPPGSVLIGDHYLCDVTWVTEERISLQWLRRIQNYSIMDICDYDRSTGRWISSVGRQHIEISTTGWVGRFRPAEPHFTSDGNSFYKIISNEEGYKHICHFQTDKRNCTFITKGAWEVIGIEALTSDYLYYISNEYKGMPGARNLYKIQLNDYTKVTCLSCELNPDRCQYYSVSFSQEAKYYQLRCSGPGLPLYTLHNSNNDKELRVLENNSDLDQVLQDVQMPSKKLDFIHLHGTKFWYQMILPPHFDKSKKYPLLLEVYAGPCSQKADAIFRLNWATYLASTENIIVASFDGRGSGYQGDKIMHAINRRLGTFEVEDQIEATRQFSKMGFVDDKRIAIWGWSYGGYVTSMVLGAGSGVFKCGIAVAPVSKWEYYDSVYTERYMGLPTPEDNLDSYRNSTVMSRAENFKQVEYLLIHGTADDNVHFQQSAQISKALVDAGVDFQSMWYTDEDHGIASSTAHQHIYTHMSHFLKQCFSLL

human GLP1R, sequence (P43220 24-463): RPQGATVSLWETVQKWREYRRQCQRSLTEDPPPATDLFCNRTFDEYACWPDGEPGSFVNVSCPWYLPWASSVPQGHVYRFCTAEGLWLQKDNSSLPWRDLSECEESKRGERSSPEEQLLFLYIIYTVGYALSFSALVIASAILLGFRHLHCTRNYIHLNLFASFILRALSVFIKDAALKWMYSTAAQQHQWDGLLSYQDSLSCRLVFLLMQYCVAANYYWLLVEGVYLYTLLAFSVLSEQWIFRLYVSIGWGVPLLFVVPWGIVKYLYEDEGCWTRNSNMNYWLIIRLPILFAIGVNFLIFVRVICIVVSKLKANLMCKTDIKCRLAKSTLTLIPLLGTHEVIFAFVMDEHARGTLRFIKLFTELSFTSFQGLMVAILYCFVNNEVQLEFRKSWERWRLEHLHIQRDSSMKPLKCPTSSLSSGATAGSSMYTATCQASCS

**Q.** For “HAEGTFTNDMTNYLEEKAAKEFVGWLIKGR-NH2 [xGLP, Xenopus GLP-1, reference compound]”, which EC50 (human GLP1R) is on record?
**A.** 832 pM

**Q.** How did the EC50 (human GLP1R) turn out when “HSEGTFTNDMTNYLEEKAAKEFVGWLIKGGPSSGAPPPS [xGLP-E4]” was run?
**A.** 155 pM

**Q.** What about the “stability in serum (overall comparison, words)” value [1] of the same substance?
**A.** more stable in serum than wild-type human and xGLP
